Experimental data taken from the supplement of paper PMC10307832.

Tests used:
Experiment in all cases: relative viability (nuclei count vs DMSO), 5 days (fraction); higher = more cells survive
Bexarotene + Trametinib = compound: C=C(c1ccc(C(=O)O)cc1)c1cc2c(cc1C)C(C)(C)CCC2(C)C [Bexarotene] + CC(=O)Nc1cccc(-n2c(=O)n(C3CC3)c(=O)c3c(Nc4ccc(I)cc4F)n(C)c(=O)c(C)c32)c1 [Trametinib] (partner 0.02 µM)
In short: (§1)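 Lung cancer cell lines in 1536-well plates got either a single drug or a fixed anchor-drug dose together with five library-drug doses (not always all listed) in √10 steps, by pin tool, on the day after seeding. Nuclei were counted after 5 days, and relative viability is the treated-to-vehicle ratio of nuclei counts. Values are medians of duplicate plates.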

Bexarotene + Lapatinib = compound: C=C(c1ccc(C(=O)O)cc1)c1cc2c(cc1C)C(C)(C)CCC2(C)C [Bexarotene] + CS(=O)(=O)CCNCc1ccc(-c2ccc3ncnc(Nc4ccc(OCc5cccc(F)c5)c(Cl)c4)c3c2)o1 [Lapatinib] (partner 2 µM)
In short: as §1

Bexarotene + Phenformin = compound: C=C(c1ccc(C(=O)O)cc1)c1cc2c(cc1C)C(C)(C)CCC2(C)C [Bexarotene] + N=C(N)NC(=N)NCCc1ccccc1 [Phenformin] (partner 250 µM)
In short: as §1

Bexarotene + Olaparib = compound: C=C(c1ccc(C(=O)O)cc1)c1cc2c(cc1C)C(C)(C)CCC2(C)C [Bexarotene] + O=C(c1cc(Cc2n[nH]c(=O)c3ccccc23)ccc1F)N1CCN(C(=O)C2CC2)CC1 [Olaparib] (partner 8 µM)
In short: as §1

Cell Line | relative viability (Bexarotene + Trametinib; first compound 0.08 µM) | relative viability (Bexarotene + Trametinib; first compound 0.253 µM) | relative viability (Bexarotene + Trametinib; first compound 0.8 µM) | relative viability (Bexarotene + Trametinib; first compound 2.53 µM) | relative viability (Bexarotene + Trametinib; first compound 8 µM) | relative viability (Bexarotene + Lapatinib; first compound 0.08 µM) | relative viability (Bexarotene + Lapatinib; first compound 0.253 µM) | relative viability (Bexarotene + Lapatinib; first compound 0.8 µM) | relative viability (Bexarotene + Lapatinib; first compound 2.53 µM) | relative viability (Bexarotene + Lapatinib; first compound 8 µM) | relative viability (Bexarotene + Phenformin; first compound 0.08 µM) | relative viability (Bexarotene + Phenformin; first compound 0.253 µM) | relative viability (Bexarotene + Phenformin; first compound 0.8 µM) | relative viability (Bexarotene + Phenformin; first compound 2.53 µM) | relative viability (Bexarotene + Phenformin; first compound 8 µM) | relative viability (Bexarotene + Olaparib; first compound 0.08 µM) | relative viability (Bexarotene + Olaparib; first compound 0.253 µM) | relative viability (Bexarotene + Olaparib; first compound 0.8 µM) | relative viability (Bexarotene + Olaparib; first compound 2.53 µM) | relative viability (Bexarotene + Olaparib; first compound 8 µM)
COR-L 105 | 0.48 | 0.426 | 0.478 | 0.451 | 0.465 | 0.404 | 0.33 | 0.322 | 0.378 | 0.345 | 0.614 | 0.472 | 0.519 | 0.517 | 0.569 | 0.698 | 0.743 | 0.898 | 0.784 | 0.913
LK-2 | 0.838 | 0.895 | 0.779 | 0.719 | 0.915 | 1.33 | 1 | 1.04 | 0.968 | 0.961 | 1.15 | 0.506 | 0.381 | – | 0.47 | 0.97 | 0.632 | 0.981 | 0.652 | 0.841
NCI-H727 | 0.377 | 0.362 | 0.293 | 0.382 | 0.292 | 1.02 | 0.887 | 0.881 | 0.762 | 0.811 | 0.51 | 0.481 | 0.574 | 0.515 | 0.503 | 0.778 | 0.694 | 0.804 | 0.691 | 0.807
RERF-LC-KJ | 0.879 | 0.85 | 0.814 | 0.873 | 0.799 | 0.798 | 0.799 | 0.702 | 0.767 | 0.757 | 0.407 | 0.405 | 0.402 | 0.364 | 0.426 | 0.991 | 0.885 | 0.812 | 0.888 | 0.865
NCI-H2023 | 0.719 | 0.676 | 0.551 | 0.497 | 0.355 | 1.03 | 1.14 | 0.979 | 0.63 | 0.595 | 0.437 | 0.483 | 0.443 | 0.422 | 0.344 | 0.461 | 0.542 | 0.406 | 0.428 | 0.288
NCI-H322M | 0.578 | 0.443 | 0.534 | 0.501 | 0.508 | 0.634 | 0.572 | 0.658 | 0.625 | 0.578 | 0.969 | 0.825 | 0.814 | 0.775 | 0.789 | 0.771 | 0.826 | 0.788 | 0.834 | 0.871
NCI-H1666 | 0.912 | 0.788 | 0.839 | 0.809 | 0.743 | 0.753 | 0.588 | 0.446 | 0.512 | 0.504 | 0.611 | 0.531 | 0.525 | 0.581 | 0.561 | 0.714 | 0.754 | 0.694 | 0.691 | 0.63
SW 900 | 0.635 | 0.846 | 0.85 | 0.81 | 0.647 | – | – | – | – | – | 0.643 | 0.64 | 0.598 | 0.46 | 0.572 | 0.936 | 0.733 | 1.11 | 0.866 | 0.863
NCI-H2087 | 0.21 | 0.166 | 0.175 | 0.148 | 0.171 | 1.06 | 1.16 | 1.2 | 0.98 | 0.883 | 0.527 | 0.475 | 0.451 | 0.433 | 0.435 | 0.689 | 0.72 | 0.582 | 0.481 | 0.58
